Laboratory results taken from patent publication US20040038985A1, “Crystal forms of 1- [6-chloro-5-(trifluoromethly) -2-pyridinyl] piperazine hydrochloride” (priority 2000, published 2004).

Key:
[1] = Thermodynamic stability / interconversion of crystal forms of Org 12962; type: physicochemical; conditions: solid crystal forms of Org 12962 compared
[2] = Stability of crystal forms A and B in admixture with excipients (HPLC content after storage); type: physicochemical; conditions: for content of Org 12962 remaining after storage, percentage of the initial amount: 14 days
Protocol: To each aliquot an excipient mentioned in Table II was added, followed by 10 μl of water, after which the suspensions were thoroughly mixed.
Aliquots of Org 12962 (5-10 mg) in crystal form B (100% form B) were weighed into roundbottomed tubes. To each aliquot an excipient mentioned in Table II was added, followed by 100 μl of water. Glass beads (250-300 mg) were added to each tube, after which the samples were thoroughly mixed for 1 minute. The residual water was evaporated in vacuo at room temperature. The tubes were stored in the dark for 14 days at either 20° C. or at 60° C. The samples were dissolved in 20.0 ml of a 70:30 mixture of 25 mM phosphate pH 2.6 buffer and acetonitrile. Dissolution was effected by keeping the tubes in a sonifier for 20 minutes.
Quantitative analysis of the amount of Org 12962 per tube was done by high performance liquid chromatography (hplc) using either of the following validated methods: (1) using a Symmetry Shield Reverse Phase RP 18 column (150×4.6 mm), which was operated at 40° C., using a flow rate of 1.0 ml/min, and as eluent a 69:31 (v/v) mixture of 25 mM phosphate buffer pH 2.6 buffer, also containing 15 mM octanesulphonic acid, and acetonitrile, or (2) using a Lichrospher 60 RP Select B column (125×4.0 mm), which was operated at ambient temperature, using a flow rate of 1.5 ml/min, and as eluent a 55:45 (v/v) mixture of methanol and water, also containing 5 mM octanesulphonic acid. The content of Org 12962 remaining in the samples after storage is given in Table II as the percentage (%) of the initial amount.

[3] = admixture with Cornstarch (10 mg per 5.0 mg Org 12962), 20° C./dark
[4] = admixture with Cornstarch (10 mg per 5.0 mg Org 12962), 60° C./dark
[5] = admixture with HPC (2 mg per 5.0 mg Org 12962), 20° C./dark
[6] = admixture with HPMC (1.3 mg per 5.0 mg Org 12962), 20° C./dark
[7] = admixture with HPMC (1.3 mg per 5.0 mg Org 12962), 60° C./dark
[8] = admixture with Lactose (80 mg per 5.0 mg Org 12962), 20° C./dark
[9] = admixture with Lactose (80 mg per 5.0 mg Org 12962), 60° C./dark
[10] = admixture with Mg-stearate (0.5 mg per 5.0 mg Org 12962), 20° C./dark
[11] = admixture with Mg-stearate (0.5 mg per 5.0 mg Org 12962), 60° C./dark
[12] = admixture with PEG 400 (0.3 mg per 5.0 mg Org 12962), 20° C./dark
[13] = admixture with PEG 400 (0.3 mg per 5.0 mg Org 12962), 60° C./dark
[14] = admixture with Primojel (4 mg per 5.0 mg Org 12962), 20° C./dark
[15] = admixture with Primojel (4 mg per 5.0 mg Org 12962), 60° C./dark
[16] = admixture with Talc (0.3 mg per 5.0 mg Org 12962), 20° C./dark
[17] = admixture with Talc (0.3 mg per 5.0 mg Org 12962), 60° C./dark
[18] = admixture with Titanium dioxide (0.2 mg per 5.0 mg Org 12962), 20° C./dark
[19] = admixture with Titanium dioxide (0.2 mg per 5.0 mg Org 12962), 60° C./dark

Row | SMILES | content of Org 12962 remaining after storage, percentage of the initial amount [2, 3] [%] | content of Org 12962 remaining after storage, percentage of the initial amount [2, 4] [%] | content of Org 12962 remaining after storage, percentage of the initial amount [2, 5] [%] | content of Org 12962 remaining after storage, percentage of the initial amount [2, 6] [%] | content of Org 12962 remaining after storage, percentage of the initial amount [2, 7] [%] | content of Org 12962 remaining after storage, percentage of the initial amount [2, 8] [%] | content of Org 12962 remaining after storage, percentage of the initial amount [2, 9] [%] | content of Org 12962 remaining after storage, percentage of the initial amount [2, 10] [%] | content of Org 12962 remaining after storage, percentage of the initial amount [2, 11] [%] | content of Org 12962 remaining after storage, percentage of the initial amount [2, 12] [%] | content of Org 12962 remaining after storage, percentage of the initial amount [2, 13] [%] | content of Org 12962 remaining after storage, percentage of the initial amount [2, 14] [%] | content of Org 12962 remaining after storage, percentage of the initial amount [2, 15] [%] | content of Org 12962 remaining after storage, percentage of the initial amount [2, 16] [%] | content of Org 12962 remaining after storage, percentage of the initial amount [2, 17] [%] | content of Org 12962 remaining after storage, percentage of the initial amount [2, 18] [%] | content of Org 12962 remaining after storage, percentage of the initial amount [2, 19] [%] | further results
1 | Cl.FC(F)(F)c1ccc(N2CCNCC2)nc1Cl [form C, 1-[6-Chloro-5-(trifluoromethyl)-2-pyridinyl]piperazine.hydrochloride] |  |  |  |  |  |  |  |  |  |  |  |  |  |  |  |  |  | thermodynamic stability of the crystal form [1]: spontaneously converts to form B, even at −20 °C
2 | Cl.FC(F)(F)c1ccc(N2CCNCC2)nc1Cl [I, 1-[6-Chloro-5-(trifluoromethyl)-2-pyridinyl]piperazine.hydrochloride] | 100.0 | 82.6 | 98.0 | 95.0 | 91.8 | 94.5 | 91.2 | 97.9 | 93.8 | 96.5 | 92.5 | 95.0 | 94.6 | 99.2 | 94.5 | 96.0 | 97.5 | 
3 | Cl.FC(F)(F)c1ccc(N2CCNCC2)nc1Cl [II, 1-[6-Chloro-5-(trifluoromethyl)-2-pyridinyl]piperazine.hydrochloride] | 100.1 | 97.9 | 100.0 | 100.0 | 97.8 | 99.6 | 97.4 | 99.9 | 97.9 | 99.8 | 96.3 | 100.0 | 96.0 | 99.9 | 100.1 | 99.8 | 92.9 | thermodynamic stability of the crystal form ([1]; listed as crystal form B): thermodynamically most stable form; content of Org 12962 remaining after storage, percentage of the initial amount ([2]; admixture with HPC (2 mg per 5.0 mg Org 12962), 60° C./dark): 96.5%; stability in admixture with pharmaceutical excipients, compared with crystal form A ([2]; stored in the dark, especially notable at 60° C. with lactose and cornstarch): more stable
